Data reported in ChEMBL document CHEMBL1201862, “PubChem BioAssay data set” (2004).
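These data come from cells grown in 96-well plates and exposed to compound for 48 hours at five concentrations. GI50 marks 50% less growth.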 Activity calls are given as the source filed them. Cut-off read from the data, not from the text of the source: active = GI50 up to about 1.1 µM and inactive = higher.

Key:
Experiment in all cases: NCI tumour cell line growth inhibition, 48 h
[1] = system: CCRF-CEM
[2] = system: OVCAR-8
[3] = system: MOLT-4
[4] = system: UACC-257
[5] = system: TK-10
[6] = system: A549
[7] = system: COLO 205
[8] = system: UACC-62
[9] = system: NCI-H23
[10] = system: SN12C
[11] = system: 786-0
[12] = system: OVCAR-3
[13] = system: A498
[14] = system: HOP-62
[15] = system: RXF 393
[16] = system: SW-620
[17] = system: OVCAR-4

Measured: GI50

O=C1C2=C(CCCC2)Nc2cccc3ncn1c23
inactive: [1] > 100 µM | [2] > 100 µM | [3] > 100 µM | [4] > 100 µM | [5] > 100 µM | [6] > 100 µM | [7] > 100 µM | [8] > 100 µM | [9] > 100 µM | [10] > 100 µM | [11] > 100 µM | [12] > 100 µM | [13] > 100 µM | [14] > 100 µM | [15] > 100 µM | [16] > 100 µM

O=[N+]([O-])c1ccc2c(c1)OCCOCCOc1ccc([N+](=O)[O-])cc1OCCOCCO2
inactive: [1] > 100 µM | [2] > 100 µM | [3] > 100 µM | [17] > 100 µM | [4] > 100 µM | [5] > 100 µM | [6] > 100 µM | [7] > 100 µM | [8] > 100 µM | [9] > 100 µM | [10] > 100 µM | [11] > 100 µM | [12] > 100 µM | [13] > 100 µM | [14] > 100 µM | [15] > 100 µM | [16] > 100 µM

Cc1c(Cl)ccc2c1NC(=O)C2(O)C1Cc2ccccc2C1=O (stereo unspecified)
inactive: [1] 26.1 µM | [2] 11.2 µM | [3] 25.2 µM | [17] 86.5 µM | [4] > 100 µM | [5] > 100 µM | [6] > 100 µM | [7] > 100 µM | [8] 72.6 µM | [9] > 100 µM | [10] > 100 µM | [11] 41.3 µM | [12] > 100 µM | [13] > 100 µM | [14] > 100 µM | [15] 57.9 µM | [16] > 100 µM

CN(c1ccccc1)c1cc2ccccc2nn1
inactive: [1] 47.1 µM | [2] > 100 µM | [3] 52.7 µM | [17] > 100 µM | [4] > 100 µM | [5] > 100 µM | [6] > 100 µM | [7] > 100 µM | [8] > 100 µM | [9] > 100 µM | [10] > 100 µM | [11] > 100 µM | [12] 53.8 µM | [13] > 100 µM | [14] > 100 µM | [15] > 100 µM | [16] > 100 µM

COc1ccc2c3c(n(Cc4ccccc4)c(=O)c2c1)-c1cc(OC)c(OC)cc1C3C (stereo unspecified)
inactive: [1] > 89.5 µM | [2] 19.8 µM | [3] 8.32 µM | [17] 6.61 µM | [4] 69.8 µM | [5] > 54.3 µM | [6] 18.6 µM | [7] 41.6 µM | [8] 18.7 µM | [9] 6.92 µM | [10] 14.7 µM | [11] 7.45 µM | [12] 15 µM | [13] 30.5 µM | [14] 14.8 µM | [15] 12.3 µM | [16] 35.7 µM

COC1=CC(=C(C#N)/C(=N\c2ccccc2)SC)C=C(OC)C1=O
inactive: [1] 16 µM | [2] 31.1 µM | [3] 20.8 µM | [4] 56.6 µM | [5] > 100 µM | [6] 78.9 µM | [7] > 100 µM | [8] 44.3 µM | [9] 54.5 µM | [10] > 100 µM | [11] 31.6 µM | [12] 31.2 µM | [13] 20.9 µM | [15] 24.4 µM | [16] 38.7 µM

CC(C)C1COC(c2cccc(C3=N[C@@H](C(C)C)CO3)n2)=N1 (stereo partly specified)
inactive: [1] > 100 µM | [3] > 100 µM | [17] > 100 µM | [5] > 100 µM | [6] > 100 µM | [7] > 100 µM | [9] > 100 µM | [10] > 100 µM | [11] > 100 µM | [12] > 100 µM | [13] > 100 µM | [14] > 100 µM | [15] > 100 µM | [16] > 100 µM

Nc1ccc2c(c1)Oc1c(F)c(F)cc3c(=O)c(C(=O)O)cn-2c13
inactive: [1] 33 µM | [2] 40.2 µM | [3] 24 µM | [17] 40.1 µM | [5] 38.1 µM | [6] 32.9 µM | [7] 45 µM | [8] 31.3 µM | [9] 64.1 µM | [10] 39.1 µM | [11] 28.1 µM | [12] 22.1 µM | [13] 4 µM | [14] 31.7 µM | [15] 43.8 µM | [16] 41.3 µM

Cc1cc2c(cc1C)[n+]([O-])c(C(=O)/C=C/c1ccc(Cl)cc1)c(C)[n+]2[O-]
inactive: [1] 32.9 µM | [2] 29.7 µM | [3] 23.8 µM | [17] 33.7 µM | [4] 27.3 µM | [5] 22.2 µM | [6] 28.2 µM | [7] 20.5 µM | [8] 20.3 µM | [9] 20.7 µM | [10] 32.8 µM | [11] 18.9 µM | [12] 33 µM | [13] 26.7 µM | [14] 24.4 µM | [16] 31.1 µM

CCCCCCCCCCCCCCCCCC(=O)NCCCNCCCNC(=O)CCCCCCCCCCCCCCCCC
inactive: [1] > 100 µM | [2] > 100 µM | [3] > 100 µM | [17] > 100 µM | [4] > 100 µM | [5] > 100 µM | [6] > 100 µM | [7] > 100 µM | [8] > 100 µM | [9] > 100 µM | [10] > 100 µM | [11] > 100 µM | [12] 37.3 µM | [13] > 100 µM | [14] > 100 µM | [16] > 100 µM

C=CCCCN1CCCC(C)C1=S (stereo unspecified)
inactive: [1] > 100 µM | [2] > 100 µM | [3] > 100 µM | [17] > 100 µM | [4] > 100 µM | [5] > 100 µM | [6] > 100 µM | [7] > 100 µM | [8] > 100 µM | [9] > 100 µM | [11] > 100 µM | [12] > 100 µM | [13] > 100 µM | [14] > 100 µM | [15] > 100 µM | [16] > 100 µM

Clc1ccccc1C1=NN(c2ccccc2)C2c3ccccc3OCC12 (stereo unspecified)
inactive: [1] 64.9 µM | [2] > 100 µM | [3] 57.8 µM | [4] 79.3 µM | [5] > 100 µM | [6] > 100 µM | [7] > 100 µM | [9] > 100 µM | [11] 74.5 µM | [12] > 100 µM | [13] > 100 µM | [14] > 100 µM | [15] > 100 µM | [16] > 100 µM
